Here are results for 31 molecules from US20230203025A1, “ENHANCERS OF PARTICULATE GUANYLYL CYCLASE RECEPTOR A” (Mayo Foundation for Medical Education and Research, priority 2020, published 2023).

In data set [1] the test system is primary human cardiomyocytes (HCMs). Briefly: inhibition of TGF-beta 1 induced human cardiomyocyte hypertrophy. It counts as cell-based. The settings on record: TGF-β1 5 ng/mL. The method, then:
Methods (Inhibition of Human Cardiac Hypertrophy In Vitro): primary human cardiomyocytes (HCMs) were grown in growth media to 50% confluence and then were subjected to serum starvation for 24 hrs. After that, 5 ng/mL of the cytokine TGFβ-1 (R&D Systems) was added to the media for 48 hrs to induce HCM hypertrophy. […] Normal cell buffer served as a vehicle only control, where TGFP-1 alone served as the positive control. Analysis for cell surface area (μm^2) was performed using the ImageJ software at the end of the study.
Results: to further support the cGMP generation in human primary cells leads to favorable biological GC-A mediated, the anti-hypertrophic effects were assessed of Compound 19 on live HCMs stressed with TGF-β1 (5 ng/mL), using a state-of-the-art live cell imaging platform (IncuCyte System).

Another data set addresses T1, pGC-A (Homo sapiens, UniProt P16066).
T1 construct: expressed in transfected cells; host or cells: HEK293
T1 sequence (P16066 33-1061): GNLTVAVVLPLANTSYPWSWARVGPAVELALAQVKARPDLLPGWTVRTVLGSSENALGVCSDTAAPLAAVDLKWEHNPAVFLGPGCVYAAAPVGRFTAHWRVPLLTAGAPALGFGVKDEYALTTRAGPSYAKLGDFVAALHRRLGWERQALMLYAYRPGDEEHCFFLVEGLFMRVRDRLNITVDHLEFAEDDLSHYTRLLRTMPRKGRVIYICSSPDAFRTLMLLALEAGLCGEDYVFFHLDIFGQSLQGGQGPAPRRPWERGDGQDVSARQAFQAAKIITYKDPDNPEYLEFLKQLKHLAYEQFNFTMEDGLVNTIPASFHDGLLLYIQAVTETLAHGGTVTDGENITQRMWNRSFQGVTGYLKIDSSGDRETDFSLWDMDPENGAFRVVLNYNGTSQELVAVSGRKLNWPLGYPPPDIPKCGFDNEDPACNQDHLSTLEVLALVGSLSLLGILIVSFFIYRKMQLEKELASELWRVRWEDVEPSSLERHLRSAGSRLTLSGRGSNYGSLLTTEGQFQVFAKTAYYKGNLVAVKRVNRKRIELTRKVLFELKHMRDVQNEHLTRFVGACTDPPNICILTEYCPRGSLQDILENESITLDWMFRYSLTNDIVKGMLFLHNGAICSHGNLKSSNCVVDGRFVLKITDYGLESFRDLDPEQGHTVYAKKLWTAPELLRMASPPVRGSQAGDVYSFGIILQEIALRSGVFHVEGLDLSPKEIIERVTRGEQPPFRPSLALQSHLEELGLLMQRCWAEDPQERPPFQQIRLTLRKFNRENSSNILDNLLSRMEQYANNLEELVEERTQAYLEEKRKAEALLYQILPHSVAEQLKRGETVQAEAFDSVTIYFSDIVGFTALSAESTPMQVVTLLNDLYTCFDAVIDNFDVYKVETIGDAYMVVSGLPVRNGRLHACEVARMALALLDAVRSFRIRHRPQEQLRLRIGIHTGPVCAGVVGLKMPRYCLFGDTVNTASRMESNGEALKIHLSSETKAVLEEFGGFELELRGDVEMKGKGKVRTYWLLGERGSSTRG
T1 sequence (P01160 124-151 partner limits assumed): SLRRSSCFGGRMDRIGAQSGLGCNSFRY
Kind of data set: cGMP production by HTRF in HEK293 cells overexpressing pGC-A. It counts as cell-based. The settings on record: for Emax: HEK293, cGMP normalized to maximal amount produced by an EC80 concentration of ANP, read-out: Max efficacy; for EC50: HEK293 pGC-A cells, cGMP HTRF, in the presence of EC20 concentration of ANP. The method, then:
Assay details: 20 nL of 10 μM test compound in DMSO was added to columns 5-48 of 1536 well white high base screening plates (Corning, New York, N.Y.) cells using 550 ECHO acoustic dispenser (Labcyte, San Jose, Calif.). […] HEK293 cells overexpressing GC-A were resuspended in assay media (OptimMem media containing 2% Heat-inactivated Fetal bovine serum and L-glutamine) at a density of 6×10^5 cells/mL and 2 μL were plated in screening plates (1200 cells/well) in suspension using a Bioraptr 2. Plates were spun at 1000 rpm for 1 min and incubated for 30 min at room temperature. 1.5 μL d2-labled cGMP followed by 1.5 uL Eu^3+ cryptate-labeled anti-cGMP cGMP detection kit (CiBio; #62GM2PEC) prepared according to manufacturer's protocol were added to all wells using a Bioraptr 2 and TR-FRET signal was detected on an EnVision detector (PerkinElmer).
On the technique in general: In TR-FRET formats the signal depends on donor and acceptor labels being close together.

The nature of data set [2]: rodent microsomal stability. It counts as in vitro ADME. To be noted: FIG. 3.
A further data set in a line: in vitro solubility. It counts as physicochemical. To be noted: FIG. 3.

By EC50 is commonly meant the midpoint of the concentration-response curve.

Molecules are shown by their SMILES. Where “and” joins values, the source holds several entries; their conditions need not be identical. Equal entries are not always repeated. Where only a bound is given, the exact number is not on record here.

On to `CC[C@H](C)[C@@H]1NC(=O)[C@H](CCCNC(=N)N)NC(=O)[C@H](CC(=O)O)NC(=O)[C@H](CCSC)NC(=O)[C@H](CCCNC(=N)N)NC(=O)CNC(=O)CNC(=O)[C@H](Cc2ccccc2)NC(=O)[C@@H](NC(=O)[C@H](CO)NC(=O)[C@H](CO)NC(=O)[C@H](CCCNC(=N)N)NC(=O)[C@H](CCCNC(=N)N)NC(=O)[C@H](CC(C)C)NC(=O)[C@@H](N)CO)CSSC[C@@H](C(=O)N[C@@H](CC(N)=O)C(=O)N[C@@H](CO)C(=O)N[C@@H](Cc2ccccc2)C(=O)N[C@@H](CCCNC(=N)N)C(=O)N[C@@H](Cc2ccc(O)cc2)C(=O)O)NC(=O)CNC(=O)[C@H](CC(C)C)NC(=O)CNC(=O)[C@H](CO)NC(=O)[C@H](CCC(N)=O)NC(=O)[C@H](C)NC(=O)CNC1=O` [ANP, reference compound], for which the entries for the “inhibition of HCM hypertrophy” value in data set [1] (ANP 10^−8 M alone) and in data set [1] (ANP 10^−10 M alone) were “significant inhibition” and “no effect”, respectively.

On to `CC(C)(C)CC(=O)N1CCCC(C(=O)Nc2nc3c(F)cc(F)cc3s2)C1` (centres unmarked) [Compound 13], for which, at pGC-A, the Emax was determined as 74% and the EC50 came to 3570 nM.

Turning to `CC(C)(C)OC(=O)N1CCCC(C(=O)Nc2nc3c(F)cc(F)cc3s2)C1` (centres unmarked) [Compound 7], on pGC-A, the Emax amounted to 64% and the EC50 came out at 8260 nM.

Regarding `O=C(Nc1nc2c(F)cc(F)cc2s1)C1CCN(C(=O)C2CCC2)CC1` [Compound 2], on pGC-A, the Emax was 79% and the EC50 stood at 1720 nM.

Consider `CC(C)(C)C(=O)N1CCCC(C(=O)Nc2nc3c(F)cc(F)cc3s2)C1` (centres unmarked) [Compound 8], for which, at pGC-A, the Emax was 73% and the concentration giving a half-maximal response (EC50) was determined as 5070 nM.

As to `O=C(Nc1nc2c(F)cc(F)cc2s1)C1CCCN(C(=O)C2CC2)C1` (centres unmarked) [Compound 9], at pGC-A, the Emax is 82% and the EC50 was determined as 1970 nM.

For `O=C(Nc1nc2c(F)cc(F)cc2s1)C1CCCNC1` (centres unmarked) [Compound 18], at pGC-A, the Emax is 82% and the 50% effective concentration (EC50) was 1050 nM.

Turning to `O=C(Nc1nc2c(F)cc(F)cc2s1)C1CCN(C(=O)c2ccccc2)C1` (centres unmarked) [Compound 25], on pGC-A, the Emax was determined as 84% and the EC50 came to 6860 nM.

Regarding `O=C(Nc1nc2c(F)cc(F)cc2s1)C1CCN(C(=O)Cc2ccccc2)C1` (centres unmarked) [Compound 27], on pGC-A, the Emax worked out at 66% and the EC50 was determined as 2690 nM.

Take `O=C(Nc1nc2c(F)cc(F)cc2s1)C1CCNC1` (centres unmarked) [Compound 31]: on pGC-A, the Emax was found to be 84% and the EC50 came to 1570 nM.

Regarding `O=C(Nc1nc2c(F)cc(F)cc2s1)C1CCN(C(=O)C2CCC2)C1` (centres unmarked) [Compound 23], at pGC-A, the Emax was determined as 82% and the EC50 was found to be 6060 nM.

Turning to `CC(C)(C)C(=O)N1CCC(C(=O)Nc2nc3c(F)cc(F)cc3s2)C1` (centres unmarked) [Compound 21], at pGC-A, the Emax was 84% and the half-maximal effective concentration (EC50) is 2090 nM.

In the case of `CN1CCC(C(=O)Nc2nc3c(F)cc(F)cc3s2)C1` (centres unmarked) [Compound 30], on pGC-A, the Emax amounted to 84% and the EC50 was 1790 nM.

Take `CS(=O)(=O)N1CCCC(C(=O)Nc2nc3c(F)cc(F)cc3s2)C1` (centres unmarked) [Compound 15]: at pGC-A, the Emax came to 77% and the EC50 is 1750 nM.

Consider `CC(C)(C)CC(=O)N1CCC(C(=O)Nc2nc3c(F)cc(F)cc3s2)C1` (centres unmarked) [Compound 26], for which, at pGC-A, the Emax amounted to 81% and the EC50 amounted to 3230 nM.

With `CC(=O)N1CCCC(C(=O)Nc2nc3c(F)cc(F)cc3s2)C1` (centres unmarked) [Compound 11], at pGC-A, the Emax stood at 79% and the half-maximal effective concentration (EC50) was 1650 nM.

As to `CN(C)CCN1CCC(C(=O)Nc2nc3c(F)cc(F)cc3s2)C1` (centres unmarked) [Compound 32], on pGC-A, the Emax came to 81% and the EC50 turned out to be 1630 nM.

In the case of `CS(=O)(=O)N1CCC(C(=O)Nc2nc3c(F)cc(F)cc3s2)C1` (centres unmarked) [Compound 28], on pGC-A, the Emax is 66% and the 50% effective concentration (EC50) is 990 nM.

Turning to `CC(=O)N1CCC(C(=O)Nc2nc3c(F)cc(F)cc3s2)C1` (centres unmarked) [Compound 24], on pGC-A, the Emax amounted to 84% and the half-maximal effective concentration (EC50) was determined as 560 nM.

Regarding `CC(=O)N1CCC(C(=O)Nc2nc3c(F)cc(F)cc3s2)CC1` [Compound 3], on pGC-A, the Emax was 74% and the half-maximal effective concentration (EC50) was 1150 nM.

On to `O=C(Nc1nc2c(F)cc(F)cc2s1)C1CCN(C(=O)C2CC2)C1` (centres unmarked) [Compound 22], for which, on pGC-A, the Emax amounted to 82% and the EC50 was 6250 nM.

Turning to `CC(C)(C)C(=O)N1CCC(C(=O)Nc2nc3c(F)cc(F)cc3s2)CC1` [Compound 1], in data set [2], the “rodent microsomal stability compared to compound A” value is “improved”. Also, at pGC-A, the Emax was 83%; the EC50 was 2180 nM and 1380 nM and 1570 nM. At pGC-A (HEK pGC-A cGMP, FIG. 2-3), the “potency compared to compound A” value is given as “improved potency”. Besides, the Max efficacy on pGC-A (cGMP normalized to maximal amount produced by an EC80 concentration of ANP) is 76% and 77%. Besides, in “in vitro solubility”, the “solubility compared to compound A” value is reported as “improved”.

On to `O=C(Nc1nc2c(F)cc(F)cc2s1)C1CCCN(Cc2ccccc2)C1` (centres unmarked) [Compound 16], for which, at pGC-A, the Emax is 66% and the EC50 was found to be 2410 nM.

With `CC(C)N1CCC(C(=O)Nc2nc3c(F)cc(F)cc3s2)CC1` [Compound 4], on pGC-A, the Emax came to 80% and the EC50 is 840 nM.

With `O=C(Nc1nc2c(F)cc(F)cc2s1)C1CCCN(C(=O)c2ccccc2)C1` (centres unmarked) [Compound 12], at pGC-A, the Emax came to 64% and the concentration for a half-maximal effect (EC50) was found to be 3360 nM.

`O=C(Nc1nc2c(F)cc(F)cc2s1)C1CCCN(C(=O)C2CCC2)C1` (centres unmarked) [Compound 10]: at pGC-A, the Emax was found to be 77% and the EC50 is 1810 nM.

Take `CC(C)(C)C(=O)N1CCC(C(=O)Nc2nc3c(Cl)ccc(Cl)c3s2)CC1` [Compound 5]: the concentration for a half-maximal effect (EC50) on pGC-A is > 66000 nM.

Regarding `CC(C)(C)C(=O)N1CCC(C(=O)Nc2nc3c(Cl)cccc3s2)CC1` [Compound 6], at pGC-A, the Emax turned out to be 51% and the 50% effective concentration (EC50) turned out to be 2000 nM.

Regarding `CC(C)(C)OC(=O)N1CCC(C(=O)Nc2nc3c(F)cc(F)cc3s2)C1` (centres unmarked) [Compound 20], on pGC-A, the Emax stood at 74% and the EC50 stood at 4380 nM.

`CN1CCCC(C(=O)Nc2nc3c(F)cc(F)cc3s2)C1` (centres unmarked) [Compound 17]: on pGC-A, the Emax was 81% and the EC50 turned out to be 1230 nM.

As for `O=C(Nc1nc2c(F)cc(F)cc2s1)C1CCCN(C(=O)Cc2ccccc2)C1` (centres unmarked) [Compound 14], at pGC-A, the Emax is 71% and the concentration giving a half-maximal response (EC50) was determined as 2020 nM.
